Columns and labels:
MAP4K1 (HPK1) = MAP4K1 (HPK1) (Homo sapiens (Human), UniProt Q92918); assay: MAP4K1 (HPK1) biochemical enzymatic activity, electrophoretic mobility shift (EZReader 2), ATP at APPKM (26 μM)
Source text: MAP4K1 (HPK1) and relevant off-target enzymatic activity was monitored using the Perkin Elmer electrophoretic mobility shift technology platform—the EZReader 2. […] Within the linear, steady-state phase of the kinase enzymatic reaction, the mixed pool of phosphorylated (product) and non-phosphorylated (substrate) peptides was passed through the microfluidic system of the PerkinElmer EZ Reader 2, under an applied electric potential difference. The presence of the phosphate group on the product peptide provided a difference in mass and charge between that of the substrate peptide, resulting in a separation of the substrate and product pools in the sample (Perrin et al. 2010). As the product and substrate peptide mixture passes the lasers within the instrument, these pools are detected (λex=488 nm, λent=568 nm) and resolved as separate peaks. The ratio between these peaks reflects the activity of the compound at that concentration, in that well, under those conditions.
Inhibitors were dissolved in 100% DMSO at a stock concentration of 10 mM. A 100×, 10-point, 4-fold serial dilution of each inhibitor was created in 100% DMSO either manually or on a Hamilton STAR liquid handler, starting at a relevant concentration, usually 1 mM. A volume of 0.130 μL of each concentration was transferred to the relevant wells of a 384-well plate (Greiner 781 201) in duplicate using a TTPLabtech Mosquito nano-litre dispenser. Using a Multidrop Combi, the remaining constituents of the kinase reaction were added to the 130 nL of dosed compound as follows (see table below for final reaction details):
Enzyme activity assays at the ^APPKM for ATP or 1 mM ATP: In each well of a 384-well plate, 0.1-15 nM of untreated enzyme was incubated in a total of 13 μL of buffer (100 mM HEPES pH 7.5, 0.015% Brij 35, 10 mM MgCl2, 1 mM DTT) with 1.5 μM fluorescent peptid and 20-1000 μM ATP, at 25° C., for 60-180 minutes in the presence or absence of a dosed concentration series of compound (1% DMSO final concentration). The kinase reactions were stopped by the addition of 70 μl of Stop buffer (100 mM HEPES pH 7.5, 0.015% Brij 35, 35 mM EDTA and 0.2% of Coating Reagent 3 (Caliper Lifesciences)). The plates were read on a Caliper EZReader 2 as described above.

expanded CD3+ T cells = assay: T cell enhancement of cytokines: IL2 measurement (HTRF) in expanded CD3+ T cells stimulated with anti-CD3/anti-CD28; type: cell-based, human; details: IL-2 measurement
Protocol: T cells are isolated from whole blood of healthy donors by immunomagnetic negative selection following manufacture's protocol (StemCell Technologies, human T cell isolation kit). Purity of isolated cells is assessed by flow cytometry and yields 95-98% CD3^+ T cells. For expansion of T cells, 1×10^6 cells/well are plated in serum free cell expansion media (ThermoFisher) containing 30 U of recombinant human IL2 (R&D) and stimulated with 25 ul of CD3/CD28 beads (Invitrogen) in 24 well plates for 3-4 days. T cells are then expanded in 175 cm flasks and maintained at a cell density of 1 to 2.5×10^6 cells/ml days by addition of ⅔ of fresh media every 2-3 days. After 10-14 days, cells are frozen in BamBanker freezing media (Thermo) and stored in liquid nitrogen.
For IL2 measurement, expanded CD3^+ T cells are dispensed at 100K cells/well (cultured in X-VIVO 10 Serum-free media) and are stimulated with plate-bound anti-CD3 and soluble anti-CD28 in the presence of vehicle or compound of the disclosure at various concentrations for 24 h. As outlined in the manufacturer's protocol (Cisbio), 16 μL of conditioned media is transferred to a white 384-well low volume plate. Following a 24 h incubation with the anti-IL2 antibodies, the homogenous time resolved fluorescence (HTRF) is measured.

[1] = Homo sapiens, T-cell, class designation
[2] = Homo sapiens, T-cell, numeric value

Chain of MAP4K1 (HPK1) (Q92918 whole entry): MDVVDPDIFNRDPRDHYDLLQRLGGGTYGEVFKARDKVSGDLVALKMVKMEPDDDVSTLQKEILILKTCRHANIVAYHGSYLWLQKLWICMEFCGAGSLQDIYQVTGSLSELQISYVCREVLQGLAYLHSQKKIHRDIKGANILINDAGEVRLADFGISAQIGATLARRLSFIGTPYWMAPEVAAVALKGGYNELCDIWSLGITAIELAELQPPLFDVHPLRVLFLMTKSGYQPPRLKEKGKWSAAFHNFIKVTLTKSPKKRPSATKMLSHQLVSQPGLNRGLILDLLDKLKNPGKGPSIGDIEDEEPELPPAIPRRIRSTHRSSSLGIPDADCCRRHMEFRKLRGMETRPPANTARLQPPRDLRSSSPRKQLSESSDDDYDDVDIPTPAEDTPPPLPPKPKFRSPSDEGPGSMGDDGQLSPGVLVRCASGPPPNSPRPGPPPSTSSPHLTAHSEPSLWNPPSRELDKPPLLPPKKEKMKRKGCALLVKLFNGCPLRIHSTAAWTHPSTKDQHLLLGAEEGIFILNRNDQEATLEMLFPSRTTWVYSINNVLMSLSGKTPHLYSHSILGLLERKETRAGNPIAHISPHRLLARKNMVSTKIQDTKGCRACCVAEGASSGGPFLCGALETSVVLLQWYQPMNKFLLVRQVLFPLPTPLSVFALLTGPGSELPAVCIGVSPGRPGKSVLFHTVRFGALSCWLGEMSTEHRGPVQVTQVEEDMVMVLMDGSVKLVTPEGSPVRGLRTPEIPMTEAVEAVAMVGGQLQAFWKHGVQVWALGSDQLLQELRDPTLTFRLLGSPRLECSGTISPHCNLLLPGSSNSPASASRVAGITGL

Row | SMILES | IC50 (MAP4K1 (HPK1); class designation) [pM] | IC50 (MAP4K1 (HPK1); numeric value) [pM] | EC50 (expanded CD3+ T cells; class designation) [pM] | EC50 (expanded CD3+ T cells; numeric value) [pM] | EC50 (expanded CD3+ T cells; [1]) [pM] | EC50 (expanded CD3+ T cells; [2]) [pM]
1 | COc1ncc(C(C)(C)N)c2cc(Nc3ccc4c(n3)[C@@H](C)COC4=O)ncc12 (single isomer, unassigned) [Compound 22] | 310 to 1000 | 500 | 35100 to 45000 | 36600 |  | 
2 | COc1ncc(C(C)(C)N)c2cc(Nc3ccc4c(n3)[C@@H](C)COC4=O)ncc12 (single isomer, unassigned) [Compound 23] | < 300 | 110 | < 35000 | 4900 |  | 
3 | COc1ncc(C(C)(C)N)c2cc(Nc3ccc4c(n3)C[C@@H](C)OC4=O)ncc12 (single isomer, unassigned) [Compound 24] | 310 to 1000 | 470 | < 35000 | 11300 |  | 
4 | COc1ncc(C(C)(C)N)c2cc(Nc3ccc4c(n3)C[C@H](C)OC4=O)ncc12 (single isomer, unassigned) [Compound 25] | < 300 | 290 | < 35000 | 3300 |  | 
5 | COc1ncc(C(C)(C)N)c2cc(Nc3ccc4c(n3)[C@@H](C)[C@@H](C)OC4=O)ncc12 (single isomer, unassigned) [Compound 39] | 310 to 1000 | 850 | < 35000 | 16200 |  | 
6 | COc1ncc(C(C)(C)N)c2cc(Nc3ccc4c(n3)[C@H](C)[C@H](C)OC4=O)ncc12 (single isomer, unassigned) [Compound 40] | < 300 | 150 | < 35000 | 4000 |  | 
7 | CCOc1ncc(C(C)(C)N)c2cc(Nc3ccc4c(n3)C[C@H](C)OC4=O)ncc12 (single isomer, unassigned) [Compound 41] | 310 to 1000 | 570 | < 35000 | 22700 |  | 
8 | CCOc1ncc(C(C)(C)N)c2cc(Nc3ccc4c(n3)C[C@@H](C)OC4=O)ncc12 (single isomer, unassigned) [Compound 42] | 310 to 1000 | 860 | < 35000 | 13600 |  | 
9 | CCOc1ncc(C(C)(C)N)c2cc(Nc3ccc4c(n3)[C@@H](C)COC4=O)ncc12 (single isomer, unassigned) [Compound 43] | < 300 | 230 | < 35000 | 8300 |  | 
10 | CCOc1ncc(C(C)(C)N)c2cc(Nc3ccc4c(n3)[C@H](C)COC4=O)ncc12 (single isomer, unassigned) [Compound 44] | 1100 to 10000 | 1200 | < 35000 | 22000 |  | 
11 | CCOc1ncc(C(C)(C)N)c2cc(Nc3ccc4c(n3)[C@@H](C)[C@@H](C)OC4=O)ncc12 (single isomer, unassigned) [Compound 59] | 1100 to 10000 | 3350 | > 55000 | 56700 |  | 
12 | CCOc1ncc(C(C)(C)N)c2cc(Nc3ccc4c(n3)[C@H](C)[C@H](C)OC4=O)ncc12 (single isomer, unassigned) [Compound 60] | < 300 | 180 | < 35000 | 10300 |  | 
13 | CC[C@@](C)(N)c1cnc(OC)c2cnc(Nc3ccc4c(n3)CC(C)(C)OC4=O)cc12 (single isomer, unassigned) [Compound 61] | < 300 | 150 | < 35000 | 3500 |  | 
14 | C[C@@H]1OC(=O)c2ccc(Nc3cc4c([C@](C)(N)C5CC5)cnc(OC5CC5)c4cn3)nc2[C@H]1C (single isomer, unassigned) [Compound 75] |  | 90 |  |  | < 35000 | 7300
15 | C[C@@H]1c2nc(Nc3cc4c([C@](C)(N)C5CC5)ncc(OC5CC5)c4cn3)ccc2C(=O)OC1(C)C (single isomer, unassigned) [Compound 76] |  | 120 |  |  | < 35000 | 6500
16 | C[C@](N)(c1cnc(OC2CC2)c2cnc(Nc3ccc4c(n3)CCNC4=O)cc12)C1CC1 (single isomer, unassigned) [Compound 106] |  | 610 |  |  | 35100 to 45000 | 41300
17 | C[C@@H]1OC(=O)c2ccc(Nc3cc4c(C(C)(C)N)cnc(OC5(C)CC5)c4cn3)nc2C1(C)C [Compound 186] | 310 to 1000 | 400 |  |  |  | 
18 | CC[C@](C)(N)c1cnc(OC2CC2)c2cnc(Nc3ccc4c(n3)C3(CC3)[C@H](C)OC4=O)cc12 [Compound 187] | < 300 | 60 |  |  |  | 
19 | COC[C@@](C)(N)c1cnc(OC2CC2)c2cnc(Nc3ccc4c(n3)[C@H](C)[C@H](C)OC4=O)cc12 [Compound 190] | < 300 | 190 |  |  |  | 
20 | CC[C@@H](N)c1cnc(OC2(C)CC2)c2cnc(Nc3ccc4c(n3)[C@@H](C)C(C)(C)OC4=O)cc12 [Compound 191] | 310 to 1000 | 530 |  |  |  | 
21 | CC(C)(N)c1cnc(OC2CC2)c2cnc(Nc3ccc4c(n3)C3(CC3)C(C)(C)OC4=O)cc12 [Compound 195] | < 300 | 270 |  |  |  | 
22 | C[C@@H]1OC(=O)c2ccc(Nc3cc4c(C(C)(C)N)cnc(OC5(C)COC5)c4cn3)nc2[C@H]1C [Compound 197] | 310 to 1000 | 340 |  |  |  | 
23 | CC1(Oc2ncc(C(C)(C)N)c3cc(Nc4cnc5c(c4)C(=O)C(C)(C)OC5=O)ncc23)COC1 [Compound 198] | < 300 | 270 |  |  |  | 
24 | CC1(Oc2ncc(C(C)(C)N)c3cc(Nc4ccc5c(n4)C4(CC4)C(C)(C)OC5=O)ncc23)CC1 [Compound 199] | 310 to 1000 | 360 |  |  |  | 
25 | COC[C@@](C)(N)c1cnc(OC2CC2)c2cnc(Nc3ccc4c(n3)CC(C)(C)OC4=O)cc12 [Compound 200] | 310 to 1000 | 480 |  |  |  | 
26 | COC[C@@](C)(N)c1cnc(OC)c2cnc(Nc3ccc4c(n3)[C@@H](C)C(C)(C)OC4=O)cc12 [Compound 201] | < 300 | 140 |  |  |  | 
27 | CC[C@@H](N)c1cnc(C)c2cnc(Nc3ccc4c(n3)[C@@H](C)[C@H](C)OC4=O)cc12 [Compound 202] | 310 to 1000 | 620 |  |  |  | 
28 | CC[C@@H](N)c1cnc(OC)c2cnc(Nc3ccc4c(n3)[C@@H](C)[C@H](C)OC4=O)cc12 [Compound 203] | 310 to 1000 | 500 |  |  |  | 
29 | COC[C@@](C)(N)c1cnc(C)c2cnc(Nc3ccc4c(n3)[C@@H](C)C(C)(C)OC4=O)cc12 [Compound 206] | < 300 | 190 |  |  |  | 
30 | CC[C@@H](N)c1ccc(Cl)c2cnc(Nc3ccc4c(n3)[C@@H](C)C(C)(C)OC4=O)cc12 [Compound 209] | 310 to 1000 |  |  |  |  | 

— US11534441B2, “MAP4K1 inhibitors” (Blueprint Medicines Corporation, priority 2020, dated 2022)
